Tests used:
[1] = target: Calcium/calmodulin-dependent protein kinase type II subunit alpha (Homo sapiens) (UniProt Q9UQM7); experiment: Inhibition of human CAMK2a at 18.6 nM by HotSpot assay relative to control
[2] = target: Dual specificity mitogen-activated protein kinase kinase 2 (Homo sapiens) (UniProt P36507); experiment: Inhibition of human MEK2 at 18.6 nM by HotSpot assay relative to control
[3] = target: Serine/threonine-protein kinase 24 (Homo sapiens) (UniProt Q9Y6E0); experiment: Inhibition of human STK24 at 18.6 nM by HotSpot assay relative to control
[4] = target: Angiopoietin-1 receptor (Homo sapiens) (UniProt Q02763); experiment: Inhibition of human TEK at 18.6 nM by HotSpot assay relative to control
[5] = target: Serine/threonine-protein kinase OSR1 (Homo sapiens) (UniProt O95747); experiment: Inhibition of human OXSR1 at 18.6 nM by HotSpot assay relative to control
[6] = target: Activin receptor type-1-like (Homo sapiens) (UniProt P37023); experiment: Inhibition of human ALK1 at 1.82 nM by HotSpot assay relative to control
[7] = target: T1, Activin receptor type-1B (Homo sapiens) (UniProt P36896); experiment: Inhibition of human ALK4 at 1.82 nM by HotSpot assay relative to control
T1 sequence (whole entry): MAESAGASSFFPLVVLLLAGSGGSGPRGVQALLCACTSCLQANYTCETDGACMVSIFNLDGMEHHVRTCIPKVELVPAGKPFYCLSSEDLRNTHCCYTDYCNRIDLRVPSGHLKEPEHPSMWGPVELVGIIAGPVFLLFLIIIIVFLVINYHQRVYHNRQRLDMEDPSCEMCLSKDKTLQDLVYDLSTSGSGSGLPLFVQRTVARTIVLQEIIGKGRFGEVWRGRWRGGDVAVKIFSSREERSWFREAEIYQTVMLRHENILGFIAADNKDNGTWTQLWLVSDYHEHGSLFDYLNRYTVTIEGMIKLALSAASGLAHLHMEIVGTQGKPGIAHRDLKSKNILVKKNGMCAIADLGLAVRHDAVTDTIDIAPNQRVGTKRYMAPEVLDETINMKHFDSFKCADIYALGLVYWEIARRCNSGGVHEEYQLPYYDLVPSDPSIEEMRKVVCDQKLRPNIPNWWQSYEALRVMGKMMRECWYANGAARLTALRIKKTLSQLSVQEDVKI

[8] = target: CDK9/Cyclin K (Homo sapiens) (UniProt P50750+O75909); experiment: Inhibition of human CDK9/cyclin K at 1.82 nM by HotSpot assay relative to control; type: protein-complex assay
[9] = target: T2, cGMP-dependent protein kinase 2 (Homo sapiens) (UniProt Q13237); experiment: Inhibition of human PRKG2 at 1.82 nM by HotSpot assay relative to control
T2 sequence (whole entry): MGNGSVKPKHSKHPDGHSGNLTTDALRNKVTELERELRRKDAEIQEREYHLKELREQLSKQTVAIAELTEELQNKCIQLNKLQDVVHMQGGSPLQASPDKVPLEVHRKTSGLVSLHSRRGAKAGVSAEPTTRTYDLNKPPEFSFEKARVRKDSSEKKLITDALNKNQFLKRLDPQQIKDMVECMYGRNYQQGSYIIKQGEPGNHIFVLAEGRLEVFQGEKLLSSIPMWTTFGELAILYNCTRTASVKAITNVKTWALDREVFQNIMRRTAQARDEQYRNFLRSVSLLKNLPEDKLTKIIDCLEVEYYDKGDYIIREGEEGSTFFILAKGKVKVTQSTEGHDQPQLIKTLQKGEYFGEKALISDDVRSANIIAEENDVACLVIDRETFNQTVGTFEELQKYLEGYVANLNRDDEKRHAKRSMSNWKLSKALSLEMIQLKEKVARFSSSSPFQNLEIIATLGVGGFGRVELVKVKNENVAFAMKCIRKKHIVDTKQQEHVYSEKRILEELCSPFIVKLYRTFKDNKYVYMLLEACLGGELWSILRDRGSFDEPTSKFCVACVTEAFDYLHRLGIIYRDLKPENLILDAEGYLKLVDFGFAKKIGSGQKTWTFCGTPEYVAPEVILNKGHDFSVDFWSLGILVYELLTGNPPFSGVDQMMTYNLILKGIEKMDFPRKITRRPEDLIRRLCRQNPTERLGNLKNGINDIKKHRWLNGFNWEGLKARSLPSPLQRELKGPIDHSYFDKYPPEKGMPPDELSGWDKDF

[10] = target: T3, NUAK family SNF1-like kinase 2 (Homo sapiens) (UniProt Q9H093); experiment: Inhibition of human NUAK2 at 1.82 nM by HotSpot assay relative to control
T3 sequence (whole entry): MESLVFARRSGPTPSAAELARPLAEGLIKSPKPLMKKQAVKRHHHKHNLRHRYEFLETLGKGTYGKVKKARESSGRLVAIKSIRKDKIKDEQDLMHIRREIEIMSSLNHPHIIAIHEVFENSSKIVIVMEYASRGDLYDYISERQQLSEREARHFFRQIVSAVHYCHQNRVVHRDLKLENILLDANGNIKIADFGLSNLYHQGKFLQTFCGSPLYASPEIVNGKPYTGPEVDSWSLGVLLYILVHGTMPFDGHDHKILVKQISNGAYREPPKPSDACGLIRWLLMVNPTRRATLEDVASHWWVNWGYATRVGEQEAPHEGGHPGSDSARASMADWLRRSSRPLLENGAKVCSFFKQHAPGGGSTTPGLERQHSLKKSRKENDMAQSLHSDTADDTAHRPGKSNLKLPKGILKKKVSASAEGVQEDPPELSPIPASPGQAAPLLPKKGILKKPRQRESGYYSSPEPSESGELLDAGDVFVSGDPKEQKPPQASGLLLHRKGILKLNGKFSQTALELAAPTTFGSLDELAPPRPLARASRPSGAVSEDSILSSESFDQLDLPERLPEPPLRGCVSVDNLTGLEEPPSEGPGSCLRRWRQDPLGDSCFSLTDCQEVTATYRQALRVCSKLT

Chain of Angiopoietin-1 receptor (Homo sapiens) (Q02763 whole entry): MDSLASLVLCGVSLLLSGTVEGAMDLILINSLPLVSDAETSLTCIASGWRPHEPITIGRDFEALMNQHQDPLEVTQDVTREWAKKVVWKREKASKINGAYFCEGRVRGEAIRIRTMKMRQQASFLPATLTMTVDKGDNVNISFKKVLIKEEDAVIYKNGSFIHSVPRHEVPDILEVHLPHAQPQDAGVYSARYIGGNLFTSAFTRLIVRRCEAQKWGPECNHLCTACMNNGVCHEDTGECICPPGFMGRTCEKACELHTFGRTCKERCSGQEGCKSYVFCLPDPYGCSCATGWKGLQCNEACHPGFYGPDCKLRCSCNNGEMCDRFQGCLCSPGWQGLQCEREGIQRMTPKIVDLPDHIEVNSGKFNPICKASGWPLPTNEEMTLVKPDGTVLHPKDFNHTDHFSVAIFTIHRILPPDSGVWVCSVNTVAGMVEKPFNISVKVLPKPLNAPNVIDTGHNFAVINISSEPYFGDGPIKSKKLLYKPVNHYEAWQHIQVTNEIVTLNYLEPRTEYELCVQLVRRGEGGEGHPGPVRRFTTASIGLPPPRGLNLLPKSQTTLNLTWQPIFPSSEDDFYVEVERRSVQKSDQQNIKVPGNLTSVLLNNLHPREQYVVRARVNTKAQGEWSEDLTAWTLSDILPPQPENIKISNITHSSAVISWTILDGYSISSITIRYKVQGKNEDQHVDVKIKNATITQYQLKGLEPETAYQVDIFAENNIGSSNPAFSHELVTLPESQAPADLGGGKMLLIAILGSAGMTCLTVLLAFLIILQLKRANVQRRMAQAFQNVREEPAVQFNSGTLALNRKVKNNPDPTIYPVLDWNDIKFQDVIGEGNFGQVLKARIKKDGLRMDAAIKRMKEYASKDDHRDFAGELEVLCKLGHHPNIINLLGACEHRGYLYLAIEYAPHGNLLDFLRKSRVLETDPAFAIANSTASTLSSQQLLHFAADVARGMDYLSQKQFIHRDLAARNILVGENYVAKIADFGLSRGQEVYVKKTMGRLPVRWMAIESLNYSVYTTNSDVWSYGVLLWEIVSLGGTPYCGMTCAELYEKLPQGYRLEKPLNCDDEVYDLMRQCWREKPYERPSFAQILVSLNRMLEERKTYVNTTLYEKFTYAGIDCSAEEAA
Chain of Serine/threonine-protein kinase 24 (Homo sapiens) (Q9Y6E0 whole entry, looked up): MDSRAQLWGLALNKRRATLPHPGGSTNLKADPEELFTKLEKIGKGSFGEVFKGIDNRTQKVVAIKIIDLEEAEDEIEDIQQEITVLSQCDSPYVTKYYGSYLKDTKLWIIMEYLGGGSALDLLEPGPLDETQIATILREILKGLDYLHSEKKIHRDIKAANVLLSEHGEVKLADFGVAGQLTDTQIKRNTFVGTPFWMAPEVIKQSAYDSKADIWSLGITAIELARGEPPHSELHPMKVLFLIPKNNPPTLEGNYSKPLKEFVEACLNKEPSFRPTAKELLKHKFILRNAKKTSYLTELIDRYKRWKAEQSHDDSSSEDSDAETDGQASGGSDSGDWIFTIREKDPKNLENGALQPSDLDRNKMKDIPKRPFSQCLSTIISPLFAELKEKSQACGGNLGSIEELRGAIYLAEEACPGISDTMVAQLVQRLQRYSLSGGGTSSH
Chain of Dual specificity mitogen-activated protein kinase kinase 2 (Homo sapiens) (P36507 whole entry): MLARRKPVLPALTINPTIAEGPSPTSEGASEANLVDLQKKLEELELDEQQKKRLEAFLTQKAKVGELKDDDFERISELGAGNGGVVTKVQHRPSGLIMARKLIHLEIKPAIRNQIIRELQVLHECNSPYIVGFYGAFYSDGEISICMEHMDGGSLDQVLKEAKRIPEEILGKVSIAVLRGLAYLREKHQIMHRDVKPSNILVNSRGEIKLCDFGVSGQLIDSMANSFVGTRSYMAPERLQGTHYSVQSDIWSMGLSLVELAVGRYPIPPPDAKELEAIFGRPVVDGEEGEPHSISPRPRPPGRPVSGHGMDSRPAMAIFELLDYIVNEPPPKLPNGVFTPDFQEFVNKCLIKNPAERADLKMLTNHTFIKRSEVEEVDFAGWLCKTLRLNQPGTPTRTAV
Chain of Calcium/calmodulin-dependent protein kinase type II subunit alpha (Homo sapiens) (Q9UQM7 whole entry): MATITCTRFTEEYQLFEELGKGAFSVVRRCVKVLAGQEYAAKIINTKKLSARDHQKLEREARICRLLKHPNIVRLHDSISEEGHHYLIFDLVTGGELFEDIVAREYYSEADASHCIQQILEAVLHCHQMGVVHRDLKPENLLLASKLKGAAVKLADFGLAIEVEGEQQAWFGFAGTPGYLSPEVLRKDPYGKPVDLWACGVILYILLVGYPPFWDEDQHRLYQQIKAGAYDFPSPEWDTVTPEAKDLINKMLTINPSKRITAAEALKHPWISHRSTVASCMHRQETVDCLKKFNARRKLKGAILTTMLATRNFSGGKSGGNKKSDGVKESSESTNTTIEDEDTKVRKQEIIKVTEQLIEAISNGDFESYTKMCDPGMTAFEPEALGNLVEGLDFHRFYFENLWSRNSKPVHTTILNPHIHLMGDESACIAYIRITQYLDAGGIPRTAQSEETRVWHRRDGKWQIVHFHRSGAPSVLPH
Chain of Activin receptor type-1-like (Homo sapiens) (P37023 whole entry): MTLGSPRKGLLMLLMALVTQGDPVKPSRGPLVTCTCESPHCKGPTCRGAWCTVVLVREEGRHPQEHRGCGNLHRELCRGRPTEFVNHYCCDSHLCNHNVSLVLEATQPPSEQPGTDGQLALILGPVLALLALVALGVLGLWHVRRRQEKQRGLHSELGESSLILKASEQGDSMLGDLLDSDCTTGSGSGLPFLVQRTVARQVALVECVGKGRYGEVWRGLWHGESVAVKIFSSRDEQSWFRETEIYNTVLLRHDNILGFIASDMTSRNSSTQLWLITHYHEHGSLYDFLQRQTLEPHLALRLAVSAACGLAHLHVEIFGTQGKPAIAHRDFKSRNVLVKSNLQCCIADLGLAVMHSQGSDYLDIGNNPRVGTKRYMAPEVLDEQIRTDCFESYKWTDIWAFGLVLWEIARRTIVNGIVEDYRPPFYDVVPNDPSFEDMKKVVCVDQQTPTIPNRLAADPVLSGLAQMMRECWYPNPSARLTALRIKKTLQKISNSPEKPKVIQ
Chain of Serine/threonine-protein kinase OSR1 (Homo sapiens) (O95747 whole entry, looked up): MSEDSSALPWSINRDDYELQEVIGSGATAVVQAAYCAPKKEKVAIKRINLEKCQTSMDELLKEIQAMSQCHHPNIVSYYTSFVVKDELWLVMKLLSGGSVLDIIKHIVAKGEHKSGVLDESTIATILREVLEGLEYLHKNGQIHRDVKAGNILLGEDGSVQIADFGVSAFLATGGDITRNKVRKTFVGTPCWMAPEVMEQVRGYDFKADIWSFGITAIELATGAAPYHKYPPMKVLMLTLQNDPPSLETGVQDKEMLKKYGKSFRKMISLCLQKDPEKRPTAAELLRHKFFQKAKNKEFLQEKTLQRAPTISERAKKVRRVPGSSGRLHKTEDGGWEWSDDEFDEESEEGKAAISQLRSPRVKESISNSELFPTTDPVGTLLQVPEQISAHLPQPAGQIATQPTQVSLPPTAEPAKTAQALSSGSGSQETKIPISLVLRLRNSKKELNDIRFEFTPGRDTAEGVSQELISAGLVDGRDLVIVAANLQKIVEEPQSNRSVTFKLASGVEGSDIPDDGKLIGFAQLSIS

inhibition [1]	inhibition [2]	inhibition [3]	inhibition [4]	inhibition [5]	inhibition [6]	inhibition [7]	inhibition [8]	inhibition [9]	inhibition [10]	SMILES
-4.3%	-5.1%	3.3%	2.86%	-6.49%						C[C@]1(O)C[C@@H](c2nc(-c3ccc4ccc(-c5ccccc5)nc4c3)c3c(N)nccn32)C1
					0.3%	0.66%	4.72%	-0.02%	8.18%	C[C@@]1(C(=O)Nc2ccc(F)nc2)CCCN1c1nc(Nc2cc(C3CC3)n[nH]2)c2cccn2n1

Source: ChEMBL document CHEMBL5653615 (J Biol Chem, 2013)
